Assay results taken from patent publication US6727268B2, “2-thioxothiazole derivative, method for preparing the same, and pharmaceutical composition containing the same” (CJ Corp., priority 2002, dated 2004).

Assays:
COX-1 = target: T1, COX-1 (Homo sapiens, UniProt P23219); experiment: Assay for the COX-1 inhibitory activity using U-937 (PGE2 inhibition); type: cell-based; settings: 1 μM test compound; U-937 human lymphoma cells; arachidonic acid substrate; PGE2 vs DMSO control; read-out: Cyclooxygenase (COX) Inhibition (%) COX-1 (1 μM)
T1 construct: host or cells: U-937 human lymphoma cells
T1 sequence (P23219 24-599): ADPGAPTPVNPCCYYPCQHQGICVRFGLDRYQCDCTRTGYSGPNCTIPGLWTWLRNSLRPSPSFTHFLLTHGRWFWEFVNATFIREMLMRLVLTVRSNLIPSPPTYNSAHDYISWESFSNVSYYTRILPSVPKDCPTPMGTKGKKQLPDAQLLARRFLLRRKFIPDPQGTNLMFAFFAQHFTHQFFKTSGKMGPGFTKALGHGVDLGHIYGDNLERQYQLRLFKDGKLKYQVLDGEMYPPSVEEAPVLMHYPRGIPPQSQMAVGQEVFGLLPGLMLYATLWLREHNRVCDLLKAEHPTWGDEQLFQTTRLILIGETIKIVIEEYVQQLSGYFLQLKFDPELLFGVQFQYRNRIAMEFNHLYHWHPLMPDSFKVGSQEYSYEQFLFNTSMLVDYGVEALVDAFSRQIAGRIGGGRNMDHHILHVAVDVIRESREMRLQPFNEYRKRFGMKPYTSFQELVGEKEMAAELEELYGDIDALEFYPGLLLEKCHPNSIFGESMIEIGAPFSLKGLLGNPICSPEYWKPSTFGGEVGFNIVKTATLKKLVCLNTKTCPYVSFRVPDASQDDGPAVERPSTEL
Method: The collected cells were diluted with HBSS (×1, Hank's balanced salt solution) to a concentration of 1×10^6 cells/ml. 1 ml of the dilute cell solution was placed into each well of 12-well plates. 5 μl of 1 μM solution of a test compound in DMSO and 5 μl of DMSO as a control were added to the wells. The wells were incubated in CO2 incubator at 37° C. for 15 minutes. Separately, 10 mM stock solution of arachidonic acid in ethanol was diluted ten times in ethanol to prepare 1 mM solution of arachidonic acid. Arachidonic acid acts as a substrate. 10 μl of the 1 mM solution of arachidonic acid was added to each well and incubated at CO2 incubator at 37° C. for 30 minutes. The cell solution of each well was placed in a centrifuge test tube and centrifuged at 10,000 rpm at 4° C. for 5 minutes. The concentration of PGE2 in the collected cells and the supernatant was quantified by means of a monoclonal kit (Cayman Chemicals). The percentages of PGE2 inhibition in a group of the test compound-treated cells in relation to a group of the DMSO-treated cells were calculated. Based on the calculated values, the COX-1 inhibitory activities were evaluated.
(§1) The percentages of the COX inhibition were calculated according to the following equation: [formula]

COX-2 = target: T2, COX-2 (Mus musculus, UniProt Q05769); experiment: Assay for the COX-2 inhibitory activity using RAW 264.7 cell line (PGE2, EIA); type: cell-based; settings: RAW264.7, 10 nM test compound, RAW 264.7 cells, aspirin pre-treated, interferon + LPS 18 hours, read-out: Cyclooxygenase (COX) Inhibition (%) COX-2 (10 nM)
T2 construct: host or cells: RAW 264.7 cells, pre-treated with aspirin and induced with interferon and LPS
T2 sequence (Q05769 18-604): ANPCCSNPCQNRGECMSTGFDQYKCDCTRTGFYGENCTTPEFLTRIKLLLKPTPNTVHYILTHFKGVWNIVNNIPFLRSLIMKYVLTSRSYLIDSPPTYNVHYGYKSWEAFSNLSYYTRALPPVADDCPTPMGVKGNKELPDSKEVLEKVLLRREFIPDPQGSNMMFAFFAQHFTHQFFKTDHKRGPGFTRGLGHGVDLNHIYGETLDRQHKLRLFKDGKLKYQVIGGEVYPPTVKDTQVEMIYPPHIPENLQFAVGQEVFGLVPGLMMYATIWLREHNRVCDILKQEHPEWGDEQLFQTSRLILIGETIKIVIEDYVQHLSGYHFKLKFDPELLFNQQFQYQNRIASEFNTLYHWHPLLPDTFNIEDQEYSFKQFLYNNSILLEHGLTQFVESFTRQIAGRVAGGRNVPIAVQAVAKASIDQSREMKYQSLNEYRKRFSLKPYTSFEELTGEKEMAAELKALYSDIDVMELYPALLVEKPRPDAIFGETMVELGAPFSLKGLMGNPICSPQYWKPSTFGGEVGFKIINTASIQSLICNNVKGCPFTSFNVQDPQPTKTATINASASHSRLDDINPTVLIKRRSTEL
Method: Each well was treated with 250 μM of aspirin and incubated at 37° C. for 2 hours. After the culture media were replaced with new culture media, the new culture media were treated with a test compound (10 nM) and incubated for 30 minutes. Then, each well was treated with interferon ? (100 units/ml) and lipopolysaccharide (LPS, 100 ng/ml) and incubated for 18 hours. The culture media were transferred to other test tubes. The concentration of PGE2 was quantified by means of the EIA kit (Cayman Chemicals).
as §1

**Q.** For `NS(=O)(=O)c1ccc(-n2c(-c3ccccc3)csc2=S)cc1` [Example 1, 4-(4-phenyl-2-thioxothiazole-3-yl)benzenesulfonamide], which inhibition at 1 µM (COX-1) is on record?
**A.** 28.5%

**Q.** And the inhibition at 0.01 µM (COX-2)?
**A.** 60.9%

**Q.** And the melting point?
**A.** 235 °C

**Q.** What does the source list for `Cc1sc(=S)n(-c2ccc(S(N)(=O)=O)cc2)c1-c1ccccc1` [Example 2, 4-(5-methyl-4-phenyl-2-thioxothiazole-3-yl)benzenesulfonamide]?
**A.** inhibition at 1 µM (COX-1): 35.2%; inhibition at 0.01 µM (COX-2): 66.5%; melting point: 262 °C

**Q.** With `CS(=O)(=O)c1ccc(-c2csc(=S)n2-c2ccc(S(N)(=O)=O)cc2)cc1` [Example 3, 4-[4-(4-methanesulfonylphenyl)-2-thioxothiazole-3-yl]benzenesulfo namide] as the compound, how does the inhibition at 1 µM (COX-1) read?
**A.** 30.7%

**Q.** And the inhibition at 0.01 µM (COX-2)?
**A.** 65.8%

**Q.** And the melting point?
**A.** 288 °C

**Q.** For `NS(=O)(=O)c1ccc(-n2c(-c3ccc(F)cc3)csc2=S)cc1` [Example 4, 4-[4-(4-fluorophenyl)-2-thioxothiazole-3-yl]benzenesulfonamide], which inhibition at 1 µM (COX-1) is on record?
**A.** 31.1%

**Q.** What about the inhibition at 0.01 µM (COX-2) of the same compound?
**A.** 72.7%

**Q.** What about the melting point of the same compound?
**A.** 271 °C

**Q.** With `NS(=O)(=O)c1ccc(-n2c(-c3cccc([N+](=O)[O-])c3)csc2=S)cc1` [Example 5, 4-[4-(3-nitrophenyl)-2-thioxothiazole-3-yl]benzenesulfonamide] as the compound, how does the inhibition at 1 µM (COX-1) read?
**A.** 15.8%

**Q.** What about the inhibition at 0.01 µM (COX-2) of the same compound?
**A.** 75%

**Q.** And the melting point?
**A.** 284 °C

**Q.** For `NS(=O)(=O)c1ccc(-n2c(-c3ccc(Cl)cc3)csc2=S)cc1` [Example 6, 4-[4-(4-chlorophenyl)-2-thioxothiazole-3-yl]benzenesulfonamide], which inhibition at 1 µM (COX-1) is on record?
**A.** 38.5%

**Q.** What about the inhibition at 0.01 µM (COX-2) of the same compound?
**A.** 73.5%

**Q.** What about the melting point of the same compound?
**A.** 242 °C

**Q.** With `Cc1onc(-c2ccccc2)c1-c1ccc(S(N)(=O)=O)cc1` [Reference (Valdecoxib), Valdecoxib, reference compound] as the compound, how does the inhibition at 1 µM (COX-1) read?
**A.** 29.5%
